Source: patent US10787442B2, “Modulators of indoleamine 2,3-dioxygenase” (GLAXOSMITHKLINE INTELLECTUAL PROPERTY DEVELOPMENT LIMITED, priority 2016, dated 2020)
Where two headings read alike, the source gives them in different places.

Key:
[1] = test system: human peripheral blood mononuclear cells (PBMC); assay: PBMC cytotoxicity assay (CellTiter-Glo); format: cell-based; details: cytotoxicity in stimulated PBMC, recorded as pCC50
ePL tagged IDO1 = biological target: T1, ePL tagged IDO1 (Homo sapiens, UniProt P14902); assay: CETSA (Cellular Thermal Shifting assay); format: binding; details: Hela cells, 3 hours at 37° C., heated at 53° C. for 3 min
T1 construct: expressed in transfected cells; host or cells: HeLa cells transduced with BacMam virus
Protocol: Cellular Thermal Shifting assays were used to directly monitor the ligand binding to target proteins in cells. Hela cells were transduced with BacMam virus expressing ePL tagged IDO1 overnight. The cells were then plated over the compounds for 3 hours at 37° C. in cell culture medium containing 1% FBS. The plates were then sealed and heated at 53° C. for 3 min. InCell Hunter reagents were added and luminescence was read in 90 min.

[2] = Tolerability and hepatic functions in Beagle dogs, 7 day repeat oral administration; format: in vivo, Beagle dog
Source text: To understand its toxicokinetics and potential effect on hepatic functions, EXAMPLE 6 was orally dosed to Beagle dogs for 7 consecutive days.

T1 sequence (P14902 whole entry): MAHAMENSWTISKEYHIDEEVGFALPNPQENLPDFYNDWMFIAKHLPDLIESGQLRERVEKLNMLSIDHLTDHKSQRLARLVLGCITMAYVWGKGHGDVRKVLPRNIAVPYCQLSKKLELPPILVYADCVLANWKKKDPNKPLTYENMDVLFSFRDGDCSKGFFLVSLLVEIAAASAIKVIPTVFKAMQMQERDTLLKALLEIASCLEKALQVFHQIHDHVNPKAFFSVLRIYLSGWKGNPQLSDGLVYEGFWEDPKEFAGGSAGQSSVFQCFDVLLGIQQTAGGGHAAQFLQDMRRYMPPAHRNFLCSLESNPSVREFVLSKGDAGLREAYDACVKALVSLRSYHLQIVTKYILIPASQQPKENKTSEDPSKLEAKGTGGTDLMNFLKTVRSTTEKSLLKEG

With CC(C)CN(c1ncc([C@H](C)CC(=O)O)cc1Nc1ccc(Cl)cn1)C1CCOCC1 [Example 6, (R)-3-(5-((5-chloropyridin-2-yl)amino)-6-(isobutyl(tetrahydro-2H-pyran-4-yl)amino)pyridin-3-yl)butanoic acid] the “PBMC_TOX PXC50” value [1] was <5.0, the EC50 (ePL tagged IDO1; first value, read-out: pXC50_1 (converted)) was 575 nM and the EC50 (ePL tagged IDO1; second value, read-out: pXC50_2 (converted)) was 759 nM. The clinical observations ([2]; 20 mg/kg PO BID for 7 days) was “no clinical observations”, the “tolerability throughout the study” value ([2]; 20 mg/kg PO BID for 7 days) was “well tolerated” and the “Hepatic functions measured by serum ALT, AST, ALP and T-Bil levels” value ([2]; 20 mg/kg PO BID for 7 days, FIG. 2) was “in the normal variable ranges”. For the same compound, the Body weights ([2]; male and female dogs over the study, FIG. 1) was “constant”.
